# In patent US20050249674A1, “Aerosol composition” (University College Cardiff Consultants Limited, priority 1998, published 2005):
# Experiment: visual assessment of suspension: ease of dispersion on hand held shaking, extent of aggregation, suspension quality
# Type: physicochemical
# Details: in HFA-134a or HFA-227
# Method: Each suspension was assessed visually for its ease of dispersion on hand held shaking, its extent of aggregation and the quality of the suspension.
# Ease of dispersion was scored on a scale of good (g), medium (m) and poor (p).
# The extent of aggregation was scored on a scale of low, medium and high. Additionally the type of aggregation, if present, was recorded.
# The quality of the suspension was scored on a scale of poor (p), poor-fair (p/f), fair (f), fair-good (f/g) and good (g).
# The suspension properties measured by visual inspection were ease of dispersion, extent of aggregation and suspension quality and were scored as for Examples A to Q.
# The resulting suspensions were assessed visually for ease of dispersion, suspension quality and extent of aggregation and scored as above, as set out under Examples A to R. The results are given in Table IV below.
# The suspensions so formed were assessed visually for ease of dispersion and suspension quality and each assessment was scored on a scale of poor (p), poor-fair (p/f), fair (f), fair-good (f/g), good (g).
# The extent of aggregation of each suspension was also assessed visually and in each example was rated as low.
smiles,measurement,value
"OC[C@H]1OC(O)[C@H](O)[C@@H](O)[C@@H]1O (stereo partly drawn) [Glucose, d-glucose anhydrous]",tendency to cream or sediment in the propellant,tendency to sediment
"CC(C)C[C@H](N)C(=O)O [Leucine, L-leucine]",tendency to cream or sediment in the propellant,tendency to cream
